From article PMC8483441 (Journal of Medicinal Chemistry, 2021)
Converted amounts (≈) assume the structure as drawn. “Also recorded” adds a separate entry of the source. Where two headings read alike, the source gives them in different places. Square brackets hold non-standard residues; d marks the D form. Peptide text beside a SMILES is read from it. hArg = N=C(N)NCCCC[C@H](N)C(=O)O; Dab = NCC[C@H](N)C(=O)O

Experiments:
Pseudomonas sp. [1] = assay: Minimum bactericidal concentration (MBC); type: cell-based; settings: 50 μL from MIC wells seeded into Petri plates, 24 h; lowest concentration without detectable growth
Method: (§1) Incubations were kept at 37 °C for 24 h. Results are the average of three independent studies.

S. flexneri = settings: 24 h
Excerpt: Purified horse red blood cells were acquired from Thermo Fisher Scientific (Hampshire, England). Human serum was purchased from Sigma (St Louis, USA). E. coli was obtained from the Coli Genetic Stock Center (BW25113). S. flexneri (ATCC 29903), A. baumannii (ATCC 15308), Pseudomonas sp. (ATCC 15915), and S. enterica (ATCC 14028) were obtained from the CECT (Valencia, Spain). Clinical strains were supplied by the Vall d’Hebron Hospital (Barcelona, Spain). MRC5 fibroblasts were obtained from the Cytometry and Cell Culture Facility (SCAC, UAB) and originally purchased from ATCC.
The antibiotic activity was defined by the minimum peptide concentration where the microorganism is unable to grow. The assay was done in polypropylene 96-well plates (Greiner, Frickenhausen, Germany) to avoid peptide binding to plate wells. Peptides were dissolved in water containing 0.4% w/v bovine serum albumin (BSA) and 0.02% v/v glacial acetic acid to prevent self-aggregation, following the reference protocol by Wiegand et al.,[42] based on the classical microtiter broth dilution recommended by the […]. Initial bacteria inoculum was adjusted to 5 × 10^5 CFU/mL in Mueller-Hinton (MH) medium. Incubations were kept at 37 °C for 24 h. Results are the average of three independent studies. MIC assays in the presence of serum were performed by incubating the peptide with human serum at a 1:1 ratio. Then, 10^6 cfu/mL of Pseudomonas sp. were incubated with serial dilutions of the peptides for 4 h. To determine the MBC, 50 μL from all wells were seeded into Petri plates and incubated for 24 h. The MBC concentration was attributed to the lowest concentration without detectable bacterial growth for each peptide.

S. enterica = type: cell-based, Salmonella enterica; settings: 24 h
Method: (§2) Human serum was purchased from Sigma (St Louis, USA).
as §1

Shigella flexneri = settings: 50 μL from MIC wells seeded into Petri plates, 24 h; lowest concentration without detectable growth
Method: The antibiotic activity was defined by the minimum peptide concentration where the microorganism is unable to grow. The assay was done in polypropylene 96-well plates (Greiner, Frickenhausen, Germany) to avoid peptide binding to plate wells. Peptides were dissolved in water containing 0.4% w/v bovine serum albumin (BSA) and 0.02% v/v glacial acetic acid to prevent self-aggregation, following the reference protocol by Wiegand et al.,[42] based on the classical microtiter broth dilution recommended by the National Committee of Laboratory Safety and Standards (NCLSS). Initial bacteria inoculum was adjusted to 5 × 10^5 CFU/mL in Mueller-Hinton (MH) medium. Incubations were kept at 37 °C for 24 h. Results are the average of three independent studies. […] To determine the MBC, 50 μL from all wells were seeded into Petri plates and incubated for 24 h. The MBC concentration was attributed to the lowest concentration without detectable bacterial growth for each peptide.

A. baumannii = type: cell-based, Acinetobacter baumannii; settings: 24 h
Method: as §2, §1

E. coli [2] = assay: Antimicrobial resistance, recurrent incubation; type: cell-based; settings: for MIC: Escherichia coli
Method: To test whether recurrent incubation of bacteria with peptides could induce resistance, E. coli (10^7 cfu/mL) were incubated with peptides (1 μM) or ciprofloxacin (1 μg/mL) for 1 h. After incubation, cells were centrifuged, washed, and grown overnight in Mueller-Hinton medium. The cycle of incubation and growth was repeated in a cyclic manner for 7 days, and each day, cultures were tested for MIC to detect resistance.

Salmonella enterica = type: cell-based; settings: 24 h
Method: as §1

Acinetobacter baumannii = type: cell-based; settings: 24 h
Method: as §1

Escherichia coli = type: cell-based; settings: 24 h
Method: as §1

Pseudomonas sp. [3] = assay: MIC, broth microdilution; type: cell-based; settings: Pseudomonas sp. ATCC 15915; Mueller-Hinton medium, 5 × 10^5 CFU/mL, 37 °C, 24 h; average of three independent studies
Method: as §2, §1

E. coli [4] = type: cell-based, Escherichia coli; settings: 24 h
Method: as §2, §1

[5] = Cytotoxicity in mammalian cells (MTT assay); type: cell-based; settings: MRC-5 cytotoxicity (IC50)
Method: MRC-5 cells were grown in Eagle’s minimum essential medium (MEMα), supplemented with 10% fetal bovine serum (FBS). 96-well plates were seeded with 3 × 10^4 cells/well and cultured overnight in order to get cells adhered into the plate and then incubated with two-fold peptide serial dilutions. After 4 h of incubation, the medium containing the peptides was replaced by MEMα supplemented with FBS and 3-(4,5-dimethylthiazol-2-yl)-2,5-diphenyltetrazolium bromide (MTT) at 0.4 mg/mL and incubated for 150 min. Detection of formazan crystals in the living cells was done by cell disruption by addition of 200 μL of dimethyl sulfoxide (DMSO) followed by absorbance measuring at 600 nm in a Tecan Infinite F Nano+ microplate reader (Tecan, Germany). Results are the average of three independent studies.

Pseudomonas sp. [6] = assay: MIC of peptides incubated with human serum; type: cell-based; settings: peptide incubated with human serum 1:1; 10^6 cfu/mL Pseudomonas sp., 4 h
Method: as §1

horse red blood cells = assay: Hemolytic activity; type: cell-based
Method: The peptide toxicity was determined detecting the disruption of horse red blood cells, following a previous assay report.[35] 10-fold diluted cells in PBS were centrifuged three times at 800g to eliminate the hemoglobin from disrupted cells. After the last resuspension, erythrocytes were incubated with the peptides for 4 h at 37 °C. The detection was done measuring the supernatant absorbance in a VICTOR3 multilabel plate reader (Perkin Elmer, Waltham, Massachusetts) at 540 nm in a microplate reader. Percentage of hemolysis was calculated through a pattern done with dilutions of total cell lysis done with a 1% Triton X-100 buffer. Results are the average of three independent studies.

50% (v/v) Human Serum = settings: up to 480 min
[7] = 50 μL from MIC wells seeded into Petri plates, lowest concentration without detectable growth

Molecule | MBC Pseudomonas sp. (Pseudomonas sp. [1]) [µM] | MBC Shigella flexneri (Shigella flexneri) [µM] | MIC Pseudomonas sp. (Pseudomonas sp. [3]) [µM] | MIC S. flexneri (S. flexneri) [µM] | MIC S. enterica (S. enterica) [µM] | MIC E. coli (E. coli [4]) [µM] | MIC A. baumannii (A. baumannii) [µM] | IC50 [5] [µM] | MBC Salmonella enterica (Salmonella enterica) [µM] | MBC Acinetobacter baumannii (Acinetobacter baumannii) [µM] | MBC Escherichia coli (Escherichia coli) [µM] | MIC in Pseudomonas sp., peptides incubated with human serum (Pseudomonas sp. [6]) [µM] | hemolysis % (250 μM peptide) (horse red blood cells; red cells of horse, 4 h, 250) [%] | cleaved bond (50% (v/v) Human Serum) | also measured
CC[C@H](C)[C@H](NC(=O)[C@H](CCCCN)NC(=O)[C@H](CCC(=O)O)NC(=O)[C@H](CCCCN)NC(=O)[C@H](CO)NC(=O)[C@H](CCCCN)NC(=O)[C@H](CCCNC(=N)N)NC(=O)[C@H](Cc1ccccc1)NC(=O)[C@H](Cc1ccccc1)NC(=O)[C@H](CC(=O)O)NC(=O)CNC(=O)[C@H](CC(C)C)NC(=O)[C@@H](N)CC(C)C)C(=O)NCC(=O)N[C@@H](CCCCN)C(=O)N[C@@H](CCC(=O)O)C(=O)N[C@@H](Cc1ccccc1)C(=O)N[C@@H](CCCCN)C(=O)N[C@@H](CCCNC(=N)N)C(=O)N[C@H](C(=O)N[C@H](C(=O)N[C@@H](CCC(N)=O)C(=O)N[C@@H](CCCNC(=N)N)C(=O)N[C@H](C(=O)N[C@@H](CCCCN)C(=O)N[C@@H](CC(=O)O)C(=O)N[C@@H](Cc1ccccc1)C(=O)N[C@@H](CC(C)C)C(=O)N[C@@H](CCCNC(=N)N)C(=O)N[C@@H](CC(N)=O)C(=O)N[C@@H](CC(C)C)C(=O)N[C@H](C(=O)N1CCC[C@H]1C(=O)N[C@@H](CCCNC(=N)N)C(=O)N[C@H](C(=O)N[C@@H](CCC(=O)O)C(=O)N[C@@H](CO)C(=O)O)[C@@H](C)O)C(C)C)[C@@H](C)CC)C(C)C)[C@@H](C)CC [LL-37, reference compound] | 1.56 (≈ 7.01 µg/mL) | 12.5 (≈ 56.2 µg/mL) | 1.56 (≈ 7.01 µg/mL) |  |  |  |  |  |  |  |  |  |  |  | MIC S. flexneri (S. flexneri; S. flexneri ATCC 29903, Mueller-Hinton medium, 5 × 10^5 CFU/mL, 37 °C, average of three independent studies): 12.5 µM (≈ 56.2 µg/mL); MIC S. enterica (S. enterica; S. enterica ATCC 14028, Mueller-Hinton medium, 5 × 10^5 CFU/mL, 37 °C, average of three independent studies): 12.5 µM (≈ 56.2 µg/mL); MIC A. baumannii (A. baumannii; A. baumannii ATCC 15308, Mueller-Hinton medium, 5 × 10^5 CFU/mL, 37 °C, average of three independent studies): 6.25 µM (≈ 28.1 µg/mL); increase in MIC (induced resistance) in E. coli (E. coli [2]; 7 rounds of incubation with 1 μM peptide, below the MIC): did not detect a significant increase in MIC; MBC Salmonella enterica (Salmonella enterica; [7]): 12.5 µM (≈ 56.2 µg/mL); MBC Acinetobacter baumannii (Acinetobacter baumannii; [7]): 6.25 µM (≈ 28.1 µg/mL); MBC Escherichia coli (Escherichia coli; [7]): 1.56 µM (≈ 7.01 µg/mL)
O=C(O)c1cn(C2CC2)c2cc(N3CCNCC3)c(F)cc2c1=O [ciprofloxacin] |  |  |  |  |  |  |  |  |  |  |  |  |  |  | MIC (E. coli [2]; after four cycles of incubation with ciprofloxacin (1 μM; 1 μg/mL elsewhere in the source), 1 h per cycle, 10^7 cfu/mL, read-out: MIC against E. coli after four cycles of incubation): 5 µM (≈ 1.66 µg/mL); MIC (E. coli [2]; start of recurrent incubation, read-out: MIC against E. coli before resistance cycles): 1.5 µM (≈ 0.497 µg/mL)
CC[C@H](C)[C@H](NC(=O)[C@H](C)NC(=O)[C@H](CCN)NC(=O)[C@H](CCSC)NC(=O)[C@H](C)NC(=O)[C@@H](NC(=O)[C@@H](NC(=O)[C@H](CCN)NC(=O)[C@@H]1CCCN1C(=O)[C@H](CO)NC(=O)[C@@H](NC(=O)[C@H](Cc1c[nH]cn1)NC(=O)[C@H](CCC(N)=O)NC(=O)[C@@H](NC(=O)[C@H](C)NC(=O)[C@H](Cc1ccccc1)NC(=O)[C@H](Cc1c[nH]c2ccccc12)NC(=O)[C@H](CCC(N)=O)NC(=O)[C@H](C)NC(=O)[C@H](CCN)NC(=O)[C@@H](NC(=O)[C@H](Cc1ccccc1)NC(=O)[C@@H]1CCCN1C(=O)[C@@H](N)CCN)[C@@H](C)O)[C@@H](C)CC)[C@@H](C)CC)[C@@H](C)O)[C@@H](C)CC)C(=O)N[C@@H](CC(N)=O)C(=O)N[C@@H](CC(N)=O)C(=O)N[C@@H](Cc1ccc(O)cc1)C(=O)N[C@@H](CCN)C(=O)N[C@@H](Cc1c[nH]c2ccccc12)C(=O)N[C@@H](CCN)C(N)=O [compound 3] (H-[Dab]PFT[Dab]AQWFAIQHISP[Dab]TIAM[Dab]AINNY[Dab]W[Dab]-NH2) | 3.13 (≈ 10.7 µg/mL) | 6.25 (≈ 21.4 µg/mL) | 3.13 (≈ 10.7 µg/mL) | 6.25 (≈ 21.4 µg/mL) | 50 (≈ 171 µg/mL) | 6.25 (≈ 21.4 µg/mL) | 50 (≈ 171 µg/mL) | 182 ± 9 | 50 (≈ 171 µg/mL) | 50 (≈ 171 µg/mL) | 6.25 (≈ 21.4 µg/mL) | 12.5 | 14 ± 6 |  | hemolysis % (250 μM peptide) (horse red blood cells): 10%
CC[C@H](C)[C@H](NC(=O)[C@H](C)NC(=O)[C@H](CCCCNC(=N)N)NC(=O)[C@H](CCSC)NC(=O)[C@H](C)NC(=O)[C@@H](NC(=O)[C@@H](NC(=O)[C@H](CCCCNC(=N)N)NC(=O)[C@@H]1CCCN1C(=O)[C@H](CO)NC(=O)[C@@H](NC(=O)[C@H](Cc1c[nH]cn1)NC(=O)[C@H](CCC(N)=O)NC(=O)[C@@H](NC(=O)[C@H](C)NC(=O)[C@H](Cc1ccccc1)NC(=O)[C@H](Cc1c[nH]c2ccccc12)NC(=O)[C@H](CCC(N)=O)NC(=O)[C@H](C)NC(=O)[C@H](CCCCNC(=N)N)NC(=O)[C@@H](NC(=O)[C@H](Cc1ccccc1)NC(=O)[C@@H]1CCCN1C(=O)[C@@H](N)CCCCNC(=N)N)[C@@H](C)O)[C@@H](C)CC)[C@@H](C)CC)[C@@H](C)O)[C@@H](C)CC)C(=O)N[C@@H](CC(N)=O)C(=O)N[C@@H](CC(N)=O)C(=O)N[C@@H](Cc1ccc(O)cc1)C(=O)N[C@@H](CCCCNC(=N)N)C(=O)N[C@@H](Cc1c[nH]c2ccccc12)C(=O)N[C@@H](CCCCNC(=N)N)C(N)=O [compound 4] (H-[hArg]PFT[hArg]AQWFAIQHISP[hArg]TIAM[hArg]AINNY[hArg]W[hArg]-NH2) | 3.13 (≈ 12 µg/mL) | 3.13 (≈ 12 µg/mL) | 3.13 (≈ 12 µg/mL) | 3.13 (≈ 12 µg/mL) | 25 (≈ 96 µg/mL) | 6.25 (≈ 24 µg/mL) | 12.5 (≈ 48 µg/mL) | 7.6 ± 0.7 | 25 (≈ 96 µg/mL) | 12.5 (≈ 48 µg/mL) | 6.25 (≈ 24 µg/mL) | 6.25 | 43 ± 1 |  | 
OPFTOAQWFAIQHISPOTIAMOAINNYOWO |  |  |  |  |  |  |  |  |  |  |  |  |  | Pro2-Phe3 | fragment found (50% (v/v) Human Serum): OPFTOAQWFAIQHISPO-------------; also recorded: -----------------TIAMOAINNYOWO; also recorded: OPFTOAQWFAIQHIS---------------; also recorded: ------QWFAIQHISPOTIAMOAINNY---
RPFTRAQWFAIQHISPRTIAMRAINNYRWR |  |  |  |  |  |  |  |  |  |  |  |  |  | Pro2-Phe3 | 
